According to PubChem BioAssay (NCI):
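Tested at 5 concentrations; 48 h exposure; 96-well plates; endpoints linearly interpolated, else capped at highest concentration. GI50 is the concentration that inhibits growth by half. TGI: concentration producing complete growth inhibition.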

How the values were obtained:
Experiment in all cases: NCI tumour cell line growth inhibition, 48 h
OVCAR-8 ovarian = tested on: OVCAR-8 ovarian
786-0 renal = tested on: 786-0 renal
CAKI-1 renal = tested on: CAKI-1 renal
OVCAR-4 ovarian = tested on: OVCAR-4 ovarian
SF-295 CNS = tested on: SF-295 CNS
UACC-62 melanoma = tested on: UACC-62 melanoma
OVCAR-5 ovarian = tested on: OVCAR-5 ovarian
SF-539 CNS = tested on: SF-539 CNS
A498 renal = tested on: A498 renal
HOP-92 NSCLC = tested on: HOP-92 NSCLC
ACHN renal = tested on: ACHN renal
KM12 colon = tested on: KM12 colon
SF-268 CNS = tested on: SF-268 CNS
UACC-257 melanoma = tested on: UACC-257 melanoma
BT-549 breast = tested on: BT-549 breast
M14 melanoma = tested on: M14 melanoma
COLO 205 colon = tested on: COLO 205 colon
MDA-MB-231 breast = tested on: MDA-MB-231 breast
OVCAR-3 ovarian = tested on: OVCAR-3 ovarian
IGROV1 ovarian = tested on: IGROV1 ovarian
HT29 colon = tested on: HT29 colon
UO-31 renal = tested on: UO-31 renal
SK-OV-3 ovarian = tested on: SK-OV-3 ovarian
MALME-3M melanoma = tested on: MALME-3M melanoma
RPMI-8226 leukemia = tested on: RPMI-8226 leukemia
NCI-H522 lung = tested on: NCI-H522 lung
NCI-H460 lung = tested on: NCI-H460 lung
DU-145 prostate = tested on: DU-145 prostate
HCC-2998 colon = tested on: HCC-2998 colon
LOX IMVI melanoma = tested on: LOX IMVI melanoma
NCI/ADR-RES ovarian = tested on: NCI/ADR-RES ovarian
MDA-MB-435 = tested on: MDA-MB-435
HL-60(TB) leukemia = tested on: HL-60(TB) leukemia
NCI-H23 lung = tested on: NCI-H23 lung
SNB-19 CNS = tested on: SNB-19 CNS
HS 578T breast = tested on: HS 578T breast
SW-620 colon = tested on: SW-620 colon
SK-MEL-2 melanoma = tested on: SK-MEL-2 melanoma
SNB-75 CNS = tested on: SNB-75 CNS
MOLT-4 leukemia = tested on: MOLT-4 leukemia
MCF7 breast = tested on: MCF7 breast
CCRF-CEM leukemia = tested on: CCRF-CEM leukemia
HCT-15 colon = tested on: HCT-15 colon
SR leukemia = tested on: SR leukemia
SN12C renal = tested on: SN12C renal
PC-3 prostate = tested on: PC-3 prostate
HCT-116 colon = tested on: HCT-116 colon
T-47D breast = tested on: T-47D breast
K-562 leukemia = tested on: K-562 leukemia
HOP-62 NSCLC = tested on: HOP-62 NSCLC
SK-MEL-28 melanoma = tested on: SK-MEL-28 melanoma
EKVX NSCLC = tested on: EKVX NSCLC
TK-10 renal = tested on: TK-10 renal
RXF 393 renal = tested on: RXF 393 renal
U251 CNS = tested on: U251 CNS
A549 NSCLC = tested on: A549 NSCLC
NCI-H226 lung = tested on: NCI-H226 lung
SK-MEL-5 melanoma = tested on: SK-MEL-5 melanoma

SMILES: COc1cc2c(cc1OCCCN1CCN(CCCOc3cc4c(cc3OC)C(=O)N3C[C@H](F)C[C@H]3C=N4)CC1)N=C[C@@H]1C[C@@H](F)CN1C2=O
- GI50 (OVCAR-8 ovarian): 0.134 µM
- TGI (OVCAR-8 ovarian): 16.2 µM
- GI50 (786-0 renal): 0.0263 µM
- TGI (786-0 renal): 0.763 µM
- GI50 (CAKI-1 renal): 0.0683 µM
- TGI (CAKI-1 renal): 2 µM
- GI50 (OVCAR-4 ovarian): 0.386 µM
- TGI (OVCAR-4 ovarian): 22.6 µM
- GI50 (SF-295 CNS): 0.0457 µM
- TGI (SF-295 CNS): > 100 µM
- GI50 (UACC-62 melanoma): 0.0223 µM
- TGI (UACC-62 melanoma): 0.145 µM
- GI50 (OVCAR-5 ovarian): 0.198 µM
- TGI (OVCAR-5 ovarian): 3.24 µM
- GI50 (SF-539 CNS): 0.0216 µM
- TGI (SF-539 CNS): 1.23 µM
- GI50 (A498 renal): 0.0947 µM
- TGI (A498 renal): 0.38 µM
- GI50 (HOP-92 NSCLC): 0.064 µM
- TGI (HOP-92 NSCLC): 14.6 µM
- GI50 (ACHN renal): 0.102 µM
- TGI (ACHN renal): 0.945 µM
- GI50 (KM12 colon): 0.18 µM
- GI50 (SF-268 CNS): 0.0248 µM
- TGI (SF-268 CNS): 5.94 µM
- GI50 (UACC-257 melanoma): 0.127 µM
- TGI (UACC-257 melanoma): 0.363 µM
- GI50 (BT-549 breast): 0.113 µM
- TGI (BT-549 breast): 0.464 µM
- GI50 (M14 melanoma): 0.0441 µM
- TGI (M14 melanoma): 0.198 µM
- GI50 (COLO 205 colon): 0.0373 µM
- TGI (COLO 205 colon): 0.193 µM
- GI50 (MDA-MB-231 breast): 0.116 µM
- TGI (MDA-MB-231 breast): 0.852 µM
- GI50 (OVCAR-3 ovarian): 0.119 µM
- TGI (OVCAR-3 ovarian): 2.91 µM
- GI50 (IGROV1 ovarian): 0.0696 µM
- TGI (IGROV1 ovarian): 1.88 µM
- GI50 (HT29 colon): 0.148 µM
- TGI (HT29 colon): > 37.2 µM
- GI50 (UO-31 renal): 0.823 µM
- TGI (UO-31 renal): 2.65 µM
- GI50 (SK-OV-3 ovarian): 0.07 µM
- TGI (SK-OV-3 ovarian): > 100 µM
- GI50 (MALME-3M melanoma): 0.0334 µM
- TGI (MALME-3M melanoma): 0.154 µM
- GI50 (RPMI-8226 leukemia): 0.0226 µM
- TGI (RPMI-8226 leukemia): 1.04 µM
- GI50 (NCI-H522 lung): < 0.041 µM
- TGI (NCI-H522 lung): 1.16 µM
- GI50 (NCI-H460 lung): < 0.01 µM
- GI50 (DU-145 prostate): 0.083 µM
- TGI (DU-145 prostate): 6.16 µM
- GI50 (HCC-2998 colon): 0.121 µM
- TGI (HCC-2998 colon): 0.357 µM
- GI50 (LOX IMVI melanoma): 0.0176 µM
- TGI (LOX IMVI melanoma): 0.145 µM
- GI50 (NCI/ADR-RES ovarian): 9.18 µM
- TGI (NCI/ADR-RES ovarian): 47.3 µM
- GI50 (MDA-MB-435): 0.105 µM
- TGI (MDA-MB-435): 0.288 µM
- GI50 (HL-60(TB) leukemia): < 0.045 µM
- TGI (HL-60(TB) leukemia): 0.797 µM
- GI50 (NCI-H23 lung): 0.0255 µM
- TGI (NCI-H23 lung): 0.209 µM
- GI50 (SNB-19 CNS): 0.758 µM
- TGI (SNB-19 CNS): > 41.6 µM
- GI50 (HS 578T breast): 0.0841 µM
- TGI (HS 578T breast): 2.56 µM
- GI50 (SW-620 colon): 0.0746 µM
- TGI (SW-620 colon): 10.4 µM
- GI50 (SK-MEL-2 melanoma): 0.394 µM
- TGI (SK-MEL-2 melanoma): 3.29 µM
- GI50 (SNB-75 CNS): 0.0338 µM
- TGI (SNB-75 CNS): 0.594 µM
- GI50 (MOLT-4 leukemia): < 0.018 µM
- TGI (MOLT-4 leukemia): 1.68 µM
- GI50 (MCF7 breast): < 0.0195 µM
- TGI (MCF7 breast): > 32.7 µM
- GI50 (CCRF-CEM leukemia): < 0.01 µM
- TGI (CCRF-CEM leukemia): 1.49 µM
- GI50 (HCT-15 colon): 2.15 µM
- TGI (HCT-15 colon): 12.9 µM
- GI50 (SR leukemia): < 0.021 µM
- TGI (SR leukemia): 0.521 µM
- GI50 (SN12C renal): 0.0139 µM
- TGI (SN12C renal): 12.2 µM
- GI50 (PC-3 prostate): 0.0546 µM
- GI50 (HCT-116 colon): 0.034 µM
- TGI (HCT-116 colon): 0.252 µM
- GI50 (T-47D breast): 0.0847 µM
- TGI (T-47D breast): > 26.5 µM
- GI50 (K-562 leukemia): 0.0269 µM
- TGI (K-562 leukemia): 3.66 µM
- GI50 (HOP-62 NSCLC): 0.013 µM
- TGI (HOP-62 NSCLC): 0.0418 µM
- GI50 (SK-MEL-28 melanoma): 0.0713 µM
- TGI (SK-MEL-28 melanoma): 0.343 µM
- GI50 (EKVX NSCLC): 0.273 µM
- TGI (EKVX NSCLC): 16.3 µM
- GI50 (TK-10 renal): 0.309 µM
- TGI (TK-10 renal): 3.28 µM

SMILES: COC(=O)/C=C1\C(=O)Nc2ccc(Br)cc21
- TGI (OVCAR-8 ovarian): 5.78 µM
- TGI (786-0 renal): 3.05 µM
- TGI (CAKI-1 renal): 3.87 µM
- TGI (OVCAR-4 ovarian): 5.84 µM
- TGI (SF-295 CNS): 5.07 µM
- TGI (UACC-62 melanoma): 3.2 µM
- TGI (OVCAR-5 ovarian): 3.17 µM
- TGI (RXF 393 renal): 3.27 µM
- TGI (A498 renal): 11.6 µM
- TGI (HOP-92 NSCLC): 4.92 µM
- TGI (ACHN renal): 3.36 µM
- TGI (KM12 colon): 4.8 µM
- TGI (SF-268 CNS): 13.8 µM
- TGI (UACC-257 melanoma): 3.07 µM
- TGI (BT-549 breast): 3.88 µM
- TGI (M14 melanoma): 6.03 µM
- TGI (U251 CNS): 4.73 µM
- TGI (COLO 205 colon): 3.45 µM
- TGI (MDA-MB-231 breast): 6.64 µM
- TGI (OVCAR-3 ovarian): 2.95 µM
- TGI (IGROV1 ovarian): 3.63 µM
- TGI (HT29 colon): 3.68 µM
- TGI (UO-31 renal): 5.55 µM
- TGI (SK-OV-3 ovarian): 10.1 µM
- TGI (MALME-3M melanoma): 7.75 µM
- TGI (RPMI-8226 leukemia): 4.48 µM
- TGI (NCI-H522 lung): 2.34 µM
- TGI (NCI-H460 lung): 5.05 µM
- TGI (DU-145 prostate): 4.38 µM
- TGI (HCC-2998 colon): 4.58 µM
- TGI (LOX IMVI melanoma): 2.25 µM
- TGI (NCI/ADR-RES ovarian): 4.49 µM
- TGI (A549 NSCLC): 12.3 µM
- TGI (MDA-MB-435): 4.76 µM
- TGI (HL-60(TB) leukemia): 3.92 µM
- TGI (NCI-H23 lung): 3.52 µM
- TGI (SNB-19 CNS): 11.4 µM
- TGI (HS 578T breast): > 34.4 µM
- TGI (SW-620 colon): 3.22 µM
- TGI (SK-MEL-2 melanoma): 1.77 µM
- TGI (NCI-H226 lung): 4.03 µM
- TGI (SNB-75 CNS): 3.87 µM
- TGI (SK-MEL-5 melanoma): 3.2 µM
- TGI (MOLT-4 leukemia): 4.01 µM
- TGI (MCF7 breast): 3.01 µM
- TGI (CCRF-CEM leukemia): 1.17 µM
- TGI (HCT-15 colon): 2.81 µM
- TGI (SR leukemia): 1.56 µM
- TGI (SN12C renal): 3 µM
- TGI (PC-3 prostate): 2.82 µM
- TGI (HCT-116 colon): 2.64 µM
- TGI (T-47D breast): 5.6 µM
- TGI (K-562 leukemia): > 28 µM
- TGI (HOP-62 NSCLC): 4.61 µM
- TGI (SK-MEL-28 melanoma): 8.43 µM
- TGI (EKVX NSCLC): 4.49 µM
- TGI (TK-10 renal): 3.09 µM
